Assays:
[1] = target: T1, baculovirus-expressed ALK (Homo sapiens, UniProt Q9UM73); assay: ALK Kinase Assay (ELISA-type, time-resolved fluorescence); type: biochemical; details: ALK kinase inhibition, 1 μM ATP (Km level); read-out: ALK Activity
T1 construct: host or cells: baculovirus expression system
How it was run: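 Wells were coated with phospholipase C-γ at 10 μg/mL in Tris-buffered saline. Adding 30 ng/ml enzyme started the reaction, which ran at 37° C for 15 minutes before Eu-N1 PT66 antibody detection. Percent inhibition versus log10 concentration gave IC50 by variable-slope fit.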

[2] = target: T2, c-Met (cytoplasmic domain) (Homo sapiens, UniProt P08581); assay: c-Met Kinase Assay (same methods as for ALK, with modifications); type: biochemical; details: c-Met kinase inhibition, 1 μM ATP (Km level); read-out: cMet Activity
T2 construct: 10 ng/mL c-Met (cytoplasmic domain, Invitrogen Corporation #PV3143); purchased Invitrogen Corporation PV3143
How it was run: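 Steps: coat wells with PLC-γ (10 μg/mL, Tris-buffered saline); add 10 ng/mL c-Met cytoplasmic domain to initiate; incubate 15 min, 37° C; detect phosphoproduct via Eu-N1 PT66 antibody.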

T2 sequence (P08581 956-1390 limits assumed): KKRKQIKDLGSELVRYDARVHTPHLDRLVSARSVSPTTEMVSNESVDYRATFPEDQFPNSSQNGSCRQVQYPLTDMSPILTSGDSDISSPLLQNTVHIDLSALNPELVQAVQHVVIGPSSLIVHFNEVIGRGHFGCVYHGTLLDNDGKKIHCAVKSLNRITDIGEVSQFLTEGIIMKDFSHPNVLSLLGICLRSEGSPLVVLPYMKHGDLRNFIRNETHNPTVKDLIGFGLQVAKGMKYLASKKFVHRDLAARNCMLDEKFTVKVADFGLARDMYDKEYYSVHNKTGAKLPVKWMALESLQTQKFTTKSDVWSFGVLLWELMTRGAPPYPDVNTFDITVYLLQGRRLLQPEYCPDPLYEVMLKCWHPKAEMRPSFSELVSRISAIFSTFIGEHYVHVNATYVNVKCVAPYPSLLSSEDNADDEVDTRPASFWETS
T1 sequence (Q9UM73 19-1620): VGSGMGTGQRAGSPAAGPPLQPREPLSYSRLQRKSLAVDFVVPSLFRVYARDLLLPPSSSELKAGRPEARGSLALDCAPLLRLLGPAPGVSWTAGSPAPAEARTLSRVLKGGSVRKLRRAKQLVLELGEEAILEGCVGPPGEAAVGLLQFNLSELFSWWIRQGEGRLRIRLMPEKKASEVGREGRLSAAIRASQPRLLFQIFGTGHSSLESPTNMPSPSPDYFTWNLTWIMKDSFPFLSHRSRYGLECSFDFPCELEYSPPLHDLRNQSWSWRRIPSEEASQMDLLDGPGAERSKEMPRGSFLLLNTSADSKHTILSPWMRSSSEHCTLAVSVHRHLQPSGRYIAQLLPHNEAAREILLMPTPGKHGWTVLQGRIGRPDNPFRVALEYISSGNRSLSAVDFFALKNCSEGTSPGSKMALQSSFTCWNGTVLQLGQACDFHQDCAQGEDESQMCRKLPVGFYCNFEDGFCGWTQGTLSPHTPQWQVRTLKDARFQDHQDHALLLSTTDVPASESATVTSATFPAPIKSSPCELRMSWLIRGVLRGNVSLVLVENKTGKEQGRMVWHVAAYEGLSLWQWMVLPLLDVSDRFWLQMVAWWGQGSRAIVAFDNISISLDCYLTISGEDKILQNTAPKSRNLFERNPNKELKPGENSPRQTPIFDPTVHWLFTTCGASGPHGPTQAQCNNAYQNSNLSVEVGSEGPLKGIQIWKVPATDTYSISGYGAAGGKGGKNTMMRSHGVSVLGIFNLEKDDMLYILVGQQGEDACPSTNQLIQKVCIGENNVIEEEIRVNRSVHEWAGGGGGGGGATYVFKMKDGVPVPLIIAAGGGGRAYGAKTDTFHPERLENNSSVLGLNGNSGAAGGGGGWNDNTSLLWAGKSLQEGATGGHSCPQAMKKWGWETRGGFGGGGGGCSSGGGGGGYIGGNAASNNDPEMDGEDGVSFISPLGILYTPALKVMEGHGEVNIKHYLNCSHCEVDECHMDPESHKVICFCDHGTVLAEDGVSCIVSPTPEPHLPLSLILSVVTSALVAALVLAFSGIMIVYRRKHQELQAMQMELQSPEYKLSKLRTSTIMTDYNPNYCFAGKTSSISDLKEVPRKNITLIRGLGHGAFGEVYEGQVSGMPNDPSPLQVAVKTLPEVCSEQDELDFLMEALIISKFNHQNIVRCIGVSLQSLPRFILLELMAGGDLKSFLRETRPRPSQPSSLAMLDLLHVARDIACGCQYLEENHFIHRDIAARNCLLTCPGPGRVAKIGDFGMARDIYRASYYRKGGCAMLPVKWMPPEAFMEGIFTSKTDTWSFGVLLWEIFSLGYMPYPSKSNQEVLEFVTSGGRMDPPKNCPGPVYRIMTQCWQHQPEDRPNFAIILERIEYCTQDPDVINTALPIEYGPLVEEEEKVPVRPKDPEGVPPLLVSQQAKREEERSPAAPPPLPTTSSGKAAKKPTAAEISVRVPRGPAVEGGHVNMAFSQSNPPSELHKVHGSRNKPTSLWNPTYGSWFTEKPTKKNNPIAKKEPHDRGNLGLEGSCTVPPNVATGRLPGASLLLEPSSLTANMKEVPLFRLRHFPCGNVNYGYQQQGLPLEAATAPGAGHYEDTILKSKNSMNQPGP

Row | Structure (SMILES) | IC50 [1] [µM] | IC50 [2] [µM]
1 | CCC1C(=O)N(CC)CCc2c1ccc(Nc1ncc(Cl)c(Nc3ccccc3C(=O)NC)n1)c2OC (stereo not drawn) [Example 152, 2-[5-Chloro-2-(1,3-diethyl-6-methoxy-2-oxo-2,3,4,5-tetrahydro-1H-benzo[d]azepin-7-ylamino)-pyrimidin-4-ylamino]-N-methyl-benzamide] | < 0.1 | 1 to 10
2 | C#CCNc1nc(Nc2ccc3c(c2)CCN(CC)CC3)ncc1Cl [Example 153, 5-Chloro-N*2*-(3-ethyl-2,3,4,5-tetrahydro-1H-benzo[d]azepin-7-yl)-N*4*-prop-2-ynyl-pyrimidine-2,4-diamine] | 1 to 10 | 1 to 10
3 | CCN1CCc2c(Nc3ncc(Cl)c(Nc4ccccc4C(=O)NC)n3)ccc(OC)c2CC1 [Example 154, 2-[5-Chloro-2-(3-ethyl-9-methoxy-2,3,4,5-tetrahydro-1H-benzo[d]azepin-6-ylamino)-pyrimidin-4-ylamino]-N-methyl-benzamide] | 0.1 to 1 | > 10
4 | CCN1CCc2c(Nc3ncc(Cl)c(N[C@@H]4CCCC[C@H]4NS(C)(=O)=O)n3)ccc(OC)c2CC1 [Example 155, N-{(1R,2R)-2-[5-Chloro-2-(3-ethyl-9-methoxy-2,3,4,5-tetrahydro-1H-benzo[d]azepin-6-ylamino)-pyrimidin-4-ylamino]-cyclohexyl}-methanesulfonamide] | < 0.1 | > 10
5 | CCN1CC2CC(C1)c1cc(Nc3ncc(Cl)c(Nc4ccccc4C(=O)NC)n3)ccc12 (stereo not drawn) [Example 156, 2-[5-Chloro-2-(10-ethyl-10-aza-tricyclo[6.3.1.0*2,7*]dodeca-2,4,6-trien-4-ylamino)-pyrimidin-4-ylamino]-N-methyl-benzamide] | < 0.1 | < 0.1
6 | CCN1CC2CC(C1)c1cc(Nc3ncc(Cl)c(Nc4ccccc4S(=O)(=O)NC)n3)ccc12 (stereo not drawn) [Example 157, 2-[5-Chloro-2-(10-ethyl-10-aza-tricyclo[6.3.1.0*2,7*]dodeca-2,4,6-trien-4-ylamino)-pyrimidin-4-ylamino]-N-methyl-benzenesulfonamide] | < 0.1 | 1 to 10
7 | CNC(=O)c1ccccc1Nc1nc(Nc2ccc3c(c2)C2CC3CN(C(C)C)C2)ncc1Cl (stereo not drawn) [Example 158, 2-[5-chloro-2-(10-isopropyl-10-aza-tricyclo[6.3.1.0*2,7*]dodeca-2,4,6-trien-4-ylamino)-pyrimidin-4-ylamino]-N-methyl-benzamide] | < 0.1 | 0.1 to 1
8 | CNS(=O)(=O)c1ccccc1Nc1nc(Nc2ccc3c(c2)C2CC3CN(C(C)C)C2)ncc1Cl (stereo not drawn) [Example 159, 2-[5-Chloro-2-(10-isopropyl-10-aza-tricyclo[6.3.1.0*2,7*]dodeca-2,4,6-trien-4-ylamino)-pyrimidin-4-ylamino]-N-methyl-benzenesulfonamide] | < 0.1 | 0.1 to 1
9 | CCN1CC2CC(C1)c1cc(Nc3ncc(Cl)c(NC4C5C=CC(C5)C4C(N)=O)n3)ccc12 (stereo not drawn) [Example 160, (2-exo,3-exo)-3-[5-Chloro-2-(10-ethyl-10-aza-tricyclo[6.3.1.0*2,7*]dodeca-2,4,6-trien-4-ylamino)-pyrimidin-4-ylamino]-bicyclo[2.2.1]hept-5-ene-2-carboxylic acid amide] | 0.1 to 1 | 1 to 10
10 | CNC(=O)c1ccccc1Nc1nc(Nc2ccc3c(c2)C2CC3CN(CCOC)C2)ncc1Cl (stereo not drawn) [Example 161, 2-{5-Chloro-2-[10-(2-methoxy-ethyl)-10-aza-tricyclo[6.3.1.0*2,7*]dodeca-2,4,6-trien-4-ylamino]-pyrimidin-4-ylamino}-N-methyl-benzamide] | < 0.1 | 0.1 to 1
11 | CNS(=O)(=O)c1ccccc1Nc1nc(Nc2ccc3c(c2)C2CC3CN(CCOC)C2)ncc1Cl (stereo not drawn) [Example 162, 2-{5-Chloro-2-[10-(2-methoxy-ethyl)-10-aza-tricyclo[6.3.1.0*2,7*]dodeca-2,4,6-trien-4-ylamino]-pyrimidin-4-ylamino}-N-methyl-benzenesulfonamide] | < 0.1 | 1 to 10
12 | CNS(=O)(=O)c1ccccc1Nc1nc(Nc2ccc3c(c2)C2CC3CN(S(C)(=O)=O)C2)ncc1Cl (stereo not drawn) [Example 163, 2-[5-Chloro-2-(10-methanesulfonyl-10-aza-tricyclo[6.3.1.0*2,7*]dodeca-2,4,6-trien-4-ylamino)-pyrimidin-4-ylamino]-N-methyl-benzenesulfonamide] | < 0.1 | 1 to 10
13 | CNC(=O)c1ccccc1Nc1nc(Nc2ccc3c(c2)C2CC3CN(S(C)(=O)=O)C2)ncc1Cl (stereo not drawn) [Example 164, 2-[5-Chloro-2-(10-methanesulfonyl-10-aza-tricyclo[6.3.1.0*2,7*]dodeca-2,4,6-trien-4-ylamino)-pyrimidin-4-ylamino]-N-methyl-benzamide] | 0.1 to 1 | < 0.1
14 | CC(C)N1CC2CC(C1)c1cc(Nc3ncc(Cl)c(N[C@@H]4CCCC[C@H]4NS(C)(=O)=O)n3)ccc12 (stereo partly drawn) [Example 165, N-{(1R,2R)-2-[5-Chloro-2-(10-isopropyl-10-aza-tricyclo[6.3.1.0*2,7*]dodeca-2,4,6-trien-4-ylamino)-pyrimidin-4-ylamino]-cyclohexyl}-methanesulfonamide] | 0.1 to 1 | 1 to 10
15 | CCN1CCc2ccc(Nc3ncc(Cl)c(NC4CCCCNC4=O)n3)cc2CC1 (stereo not drawn) [Example 166, 3-[5-Chloro-2-(3-ethyl-2,3,4,5-tetrahydro-1H-benzo[d]azepin-7-ylamino)-pyrimidin-4-ylamino]-azepan-2-one] | < 0.1 | 1 to 10
16 | CNS(=O)(=O)c1ccccc1Nc1nc(Nc2cccc3c2C(=O)NCCN3)ncc1Cl [Example 171, 2-[5-Chloro-2-(5-oxo-2,3,4,5-tetrahydro-1H-benzo[e][1,4]diazepin-6-ylamino)pyrimidin-4-ylamino]-N-methyl-benzenesulfonamide] | 1 to 10 | 1 to 10
17 | CNC(=O)c1ccccc1Nc1nc(Nc2ccc3c(c2)CCC(=O)CC3)ncc1Cl [Example 172, 2-[5-Chloro-2-(7-oxo-6,7,8,9-tetrahydro-5H-benzocyclo-hepten-2-ylamino)-pyrimidin-4-ylamino]-N-methyl-benzamide] | < 0.1 | < 0.1
18 | CS(=O)(=O)N[C@@H]1CCCC[C@H]1Nc1nc(Nc2ccc3c(c2)CCC(=O)CC3)ncc1Cl [Example 174, N-{(1R,2R)-2-[5-Chloro-2-(7-oxo-6,7,8,9-tetrahydro-5H-benzocyclohepten-2-ylamino)-pyrimidin-4-ylamino]-cyclohexyl}-methanesulfonamide] | < 0.1 | 0.1 to 1
19 | COc1cc(N2CCOCC2)ccc1Nc1nc(Nc2ccc3c(c2)CCC(=O)CC3)ncc1Cl [Example 175, 2-[5-Chloro-4-(2-methoxy-4-morpholin-4-yl-phenylamino)-pyrimidin-2-ylamino]-5,6,8,9-tetrahydro-benzocyclohepten-7-one] | < 0.1 | 1 to 10
20 | COCCN1CCc2ccc(Nc3ncc(Cl)c(NC4C5CCC(C5)C4C(N)=O)n3)cc2CC1 (stereo not drawn) [Example 177, (2-exo,3-exo)-3-{5-Chloro-2-[3-(2-methoxy-ethyl)-2,3,4,5-tetrahydro-1H-benzo[d]azepin-7-ylamino]-pyrimidin-4-ylamino}-bicyclo[2.2.1]heptane-2-carboxylic acid amide] | < 0.1 | 0.1 to 1
21 | CNC(=O)c1ccccc1Nc1nc(Nc2ccc3c(c2)CCC(N2CCOCC2)CC3)ncc1Cl (stereo not drawn) [Example 178, 2-[5-Chloro-2-(7-morpholin-4-yl-6,7,8,9-tetrahydro-5H-benzocyclohepten-2-ylamino)-pyrimidin-4-ylamino]-N-methyl-benzamide] | < 0.1 | < 0.1
22 | CS(=O)(=O)N[C@@H]1CCCC[C@H]1Nc1nc(Nc2ccc3c(c2)CCC(N2CCOCC2)CC3)ncc1Cl (stereo partly drawn) [Example 179, N-{(1R,2R)-2-[5-Chloro-2-(7-morpholin-4-yl-6,7,8,9-tetrahydro-5H-benzocyclohepten-2-ylamino)-pyrimidin-4-ylamino]-cyclohexyl}-methanesulfonamide] | < 0.1 | 0.1 to 1
23 | CNC(=O)c1ccccc1Nc1nc(Nc2ccc3c(c2)CCC(F)(F)CC3)ncc1Cl [Example 180, 2-[5-Chloro-2-(7,7-difluoro-6,7,8,9-tetrahydro-5H-benzocyclohepten-2-ylamino)-pyrimidin-4-ylamino]-N-methyl-benzamide] | < 0.1 | 0.1 to 1
24 | CS(=O)(=O)N[C@@H]1CCCC[C@H]1Nc1nc(Nc2ccc3c(c2)CCC(F)(F)CC3)ncc1Cl [Example 181, N-{(1R,2R)-2-[5-Chloro-2-(7,7-difluoro-6,7,8,9-tetrahydro-5H-benzocyclohepten-2-ylamino)-pyrimidin-4-ylamino]-cyclohexyl}-methanesulfonamide] | < 0.1 | 1 to 10
25 | COc1cc(N2CCOCC2)ccc1Nc1nc(Nc2ccc3c(c2)CCC(F)(F)CC3)ncc1Cl [Example 182, 5-Chloro-N*2*-(7,7-difluoro-6,7,8,9-tetrahydro-5H-benzocyclohepten-2-yl)-N*4*-(2-methoxy-4-morpholin-4-yl-phenyl)-pyrimidine-2,4-diamine] | 0.1 to 1 | > 10
26 | CCN1CCc2ccc(Nc3ncc(C)c(Nc4ccccc4C(=O)NC)n3)cc2CC1 [Example 191, 2-[2-(3-Ethyl-2,3,4,5-tetrahydro-1H-benzo[d]azepin-7-ylamino)-5-methyl-pyrimidin-4-ylamino]-N-methyl-benzamide] | < 0.1 | < 0.1
27 | CCN1CCc2ccc(Nc3ncc(Br)c(Nc4ccccc4C(=O)NC)n3)cc2CC1 [Example 192, 2-[2-(3-Ethyl-2,3,4,5-tetrahydro-1H-benzo[d]azepin-7-ylamino)-5-bromo-pyrimidin-4-ylamino]-N-methyl-benzamide] | < 0.1 | < 0.1

Reference: patent US8148391B2 (Cephalon, Inc., priority 2006, dated 2012)
